Assay results reported in US12252492B2, “Substituted fused pyrrolo-diazepinones and uses thereof” (Northwestern University, priority 2018, dated 2025).

Assays:
Type in all cases: cell-based, human
HL-60(TB) = experiment: NCI60 one-dose screen, HL-60(TB); details: HL-60(TB) (Leukemia); NCI 60 one-dose, 10^-5 M
Protocol: (§1) Anti-cancer activity screening of all compounds was performed by the NCI Developmental Therapeutics Program (DTP) through their NCI60 screening initiative. Assay details can be found at the website dtp.cancer.gov/discovery_development/nci-60/methodology.htm. Information from this website is reproduced here for convenience.
(§2) As of early 2007 all compounds submitted to the NCI 60 Cell screen are tested initially at a single high dose (10^-5 M) in the full NCI 60 cell panel. Only compounds which satisfy pre-determined threshold inhibition criteria in a minimum number of cell lines will progress to the full 5-dose assay. The threshold inhibition criteria for progression to the 5-dose screen was selected to efficiently capture compounds with anti-proliferative activity based on careful analysis of historical DTP screening data. The threshold criteria may be updated as additional data becomes available.
(§3) The One-dose data will be reported as a mean graph of the percent growth of treated cells and will be similar in appearance to mean graphs from the 5-dose assay. […]
(§4) Following drug addition, the plates are incubated for an additional 48 h at 37° C., 5% CO2, 95% air, and 100% relative humidity. […] Bound stain is subsequently solubilized with 10 mM trizma base, and the absorbance is read on an automated plate reader at a wavelength of 515 nm. […]

HCC-2998 = experiment: NCI60 one-dose screen, HCC-2998; details: HCC-2998 (Colon Cancer); NCI 60 one-dose, 10^-5 M
Protocol: as §1, §2, §3, §4

HT29 = experiment: NCI60 one-dose screen, HT29; details: HT29 (Colon Cancer); NCI 60 one-dose, 10^-5 M
Protocol: as §1, §2, §3, §4

SF-539 = experiment: NCI60 one-dose screen, SF-539; details: SF-539 (CNS Cancer); NCI 60 one-dose, 10^-5 M
Protocol: as §1, §2, §3, §4

M14 = experiment: NCI60 one-dose screen, M14; details: M14 (Melanoma); NCI 60 one-dose, 10^-5 M
Protocol: as §1, §2, §3, §4

SK-MEL-2 = experiment: NCI60 one-dose screen, SK-MEL-2; details: SK-MEL-2 (Melanoma); NCI 60 one-dose, 10^-5 M
Protocol: as §1, §2, §3, §4

SK-MEL-5 = experiment: NCI60 one-dose screen, SK-MEL-5; details: SK-MEL-5 (Melanoma); NCI 60 one-dose, 10^-5 M
Protocol: as §1, §2, §3, §4

UACC-257 = experiment: NCI60 one-dose screen, UACC-257; details: UACC-257 (Melanoma); NCI 60 one-dose, 10^-5 M
Protocol: as §1, §2, §3, §4

IGROV1 = experiment: NCI60 one-dose screen, IGROV1; details: IGROV1 (Ovarian Cancer); NCI 60 one-dose, 10^-5 M
Protocol: as §1, §2, §3, §4

OVCAR-5 = experiment: NCI60 one-dose screen, OVCAR-5; details: OVCAR-5 (Ovarian Cancer); NCI 60 one-dose, 10^-5 M
Protocol: as §1, §2, §3, §4

OVCAR-8 = experiment: NCI60 one-dose screen, OVCAR-8; details: OVCAR-8 (Ovarian Cancer); NCI 60 one-dose, 10^-5 M
Protocol: as §1, §2, §3, §4

NCI/ADR-RES = experiment: NCI60 one-dose screen, NCI/ADR-RES; details: NCI/ADR-RES (Ovarian Cancer); NCI 60 one-dose, 10^-5 M
Protocol: as §1, §2, §3, §4

RXF 393 = experiment: NCI60 one-dose screen, RXF 393; details: RXF 393 (Renal Cancer); NCI 60 one-dose, 10^-5 M
Protocol: as §1, §2, §3, §4

UO-31 = experiment: NCI60 one-dose screen, UO-31; details: UO-31 (Renal Cancer); NCI 60 one-dose, 10^-5 M
Protocol: as §1, §2, §3, §4

PC-3 = experiment: NCI60 one-dose screen, PC-3; details: PC-3 (Prostate Cancer); NCI 60 one-dose, 10^-5 M
Protocol: as §1, §2, §3, §4

DU-145 = experiment: NCI60 one-dose screen, DU-145; details: DU-145 (Prostate Cancer); NCI 60 one-dose, 10^-5 M
Protocol: as §1, §2, §3, §4

HS 578T = experiment: NCI60 one-dose screen, HS 578T; details: HS 578T (Breast Cancer); NCI 60 one-dose, 10^-5 M
Protocol: as §1, §2, §3, §4

T-47D = experiment: NCI60 one-dose screen, T-47D; details: T-47D (Breast Cancer); NCI 60 one-dose, 10^-5 M
Protocol: as §1, §2, §3, §4

| SMILES | Growth Percent (HL-60(TB)) [%] | Growth Percent (HCC-2998) [%] | Growth Percent (HT29) [%] | Growth Percent (SF-539) [%] | Growth Percent (M14) [%] | Growth Percent (SK-MEL-2) [%] | Growth Percent (SK-MEL-5) [%] | Growth Percent (UACC-257) [%] | Growth Percent (IGROV1) [%] | Growth Percent (OVCAR-5) [%] | Growth Percent (OVCAR-8) [%] | Growth Percent (NCI/ADR-RES) [%] | Growth Percent (RXF 393) [%] | Growth Percent (UO-31) [%] | Growth Percent (PC-3) [%] | Growth Percent (DU-145) [%] | Growth Percent (HS 578T) [%] | Growth Percent (T-47D) [%] |
| --- | --- | --- | --- | --- | --- | --- | --- | --- | --- | --- | --- | --- | --- | --- | --- | --- | --- | --- |
| CC(=O)N1c2ccccc2NC2=C(C(=O)N(C)C2(C)C)C1c1ccccc1 (stereo not drawn) [NUCC-60872] | 7.50 | 60.81 | 25.22 | 20.14 | 21.48 | 8.92 | 27.50 | 36.37 | 39.64 | 62.50 | 65.84 | 101.74 | 27.79 | 81.99 | 36.41 | 78.98 | 20.42 | 28.72 |
| CC(=O)N1c2ccccc2NC2=C(C(=O)N(Cc3ccccc3)C2(C)C)C1c1ccco1 (stereo not drawn) [NUCC-608455] | 9.63 | 3.73 | 9.99 | −17.85 | −13.58 | 16.91 | 7.88 | 77.61 | 26.78 | 25.92 | 26.13 | 82.92 | −11.72 | 52.54 | 29.67 | 7.82 | 10.67 | 35.10 |
